Target: T1, rASH4 (ASH4) (Toxoplasma gondii, UniProt A0A125YZ56)
T1 construct: full-length ORF from RH cDNA, N-terminal 6xHis tag (pET-28A, pIF22), E. coli BL21-CodonPlus(DE3)-RIL; active-site S124, G2 myristoylation site
T1 sequence (A0A125YZ56 1-260): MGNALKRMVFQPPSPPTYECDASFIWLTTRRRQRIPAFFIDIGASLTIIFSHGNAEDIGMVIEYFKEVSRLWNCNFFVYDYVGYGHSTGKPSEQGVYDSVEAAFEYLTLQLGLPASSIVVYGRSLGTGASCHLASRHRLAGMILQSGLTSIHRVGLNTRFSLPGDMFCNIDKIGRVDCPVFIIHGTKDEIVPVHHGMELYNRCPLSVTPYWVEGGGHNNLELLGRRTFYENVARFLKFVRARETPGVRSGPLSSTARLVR
Test: fluorogenic hydrolysis assay
Format: biochemical
Settings: 10 uM substrate, 150 nM enzyme

**Q.** For `CC(=O)Oc1ccc2c(C)cc(=O)oc2c1` [4MU-acetate, 4-methyl-2-oxo-2H-chromen-7-yl acetate], which fluorogenic hydrolysis assay is on record?
**A.** with the two-carbon acetyl ester having the highest rate of hydrolysis
